Measured values published in US20240391885A1, “FORMS OF LINERIXIBAT” (GLAXOSMITHKLINE INTELLECTUAL PROPERTY (NO. 2) LIMITED, priority 2020, published 2024).
In brackets after ≈: the same amount, converted by molar mass. Blank lines part the entries; values can stand above or below the compound they belong to.

Assays:
[1] = Storage stability of drug substance by HPLC, XRPD and SSNMR; format: physicochemical; settings: 1 month of storage at 50° C./ambient RH
[2] = Solubility of drug substance samples in biorelevant media and sodium acetate buffer (Experiment 8b); format: physicochemical
Description: Solubility data was obtained for drug substance samples of linerixibat Form I, linerixibat Form III, and additionally for a sample of Form I compressed to 100 MPa which therefore contained an amount of Form III, in order to replicate typical forces encountered during tablet manufacture.
The media used for the drug substance samples were biorelevant media likely to be experienced in the stomach and the intestine, namely Simulated Gastric Fluid (SGF) over an increasing pH range (1.6, 2.0 and 4.0) and Fasted State Simulated Intestinal Fluid (FaSSIF) at a pH of 6.5. Solubility data was also obtained in 50 mM sodium acetate buffer pH 4.5.

[3] = Miniaturised shake flask solubility in Britton-Robinson buffers and biorelevant media (Experiment 8c); format: physicochemical; settings: 37° C., 1, 4 and 24 hours; FIG. 25
Method: Solubility of Form I and Form III was also measured in Britton-Robinson buffers (pH 2-8), determined and compared using a standardised miniaturised shake flask method via an automated platform using a development HPLC method for quantification post centrifugation and filtration. Samples were run at 37° C. and performed as 2 replicate preparations for each pH condition and 4 replicate preparations for each biorelevant media condition at 1, 4 and 24 hours.

[4] = Solubility of linerixibat drug substance over pH 1.2-6.8 at 37±1° C. (Experiment 8a); format: physicochemical
Method: The solubility of linerixibat drug substance, in respect of Form I and Form III, was determined over the pH range of 1.2-6.8 at 37±1° C. Eight pH values within this range, including buffers at pH 1.2, 4.5 and 6.8 were evaluated. The therapeutic dose for linerixibat is 40 mg.
• SGF=simulated gastric fluid • BR=Britton Robinson

[5] = Dissolution of linerixibat tablets (USP <711> Apparatus II); format: physicochemical; settings: at both gastric and intestinal pH (pH 1.2 and pH 6.8)
Method: The dissolution procedure developed for Linerixibat Tablets, 40 mg, is determined as directed in USP<711> and the method parameters are presented in Table G. The percentage of dissolved drug is currently determined by gradient reversed-phase HPLC.
The above dissolution method at pH 6.8 was applied to two batches of Linerixibat Tablets, 40 mg and the profiles obtained are shown in FIG. 24.

[6] = Systemic absorption of linerixibat; settings: in vivo

Solubility ([2]; 50 mM Sodium Acetate Buffer pH 4.5, 1 Hour, listed as Form 3): 290 µg/mL (≈ 530 µM) | Solubility ([2]; 50 mM Sodium Acetate Buffer pH 4.5, 4 Hours, listed as Form 3): 290 µg/mL (≈ 530 µM) | Solubility ([2]; 50 mM Sodium Acetate Buffer pH 4.5, 24 Hours, listed as Form 3): 280 µg/mL (≈ 512 µM) | Solubility ([2]; FaSSIF pH 6.5, 1 Hour, listed as Form 3): 5200 µg/mL (≈ 9510 µM) | Solubility ([2]; FaSSIF pH 6.5, 4 Hours, listed as Form 3): 5310 µg/mL (≈ 9710 µM) | Solubility ([2]; FaSSIF pH 6.5, 24 Hours, listed as Form 3): 5320 µg/mL (≈ 9730 µM) | Solubility ([2]; SGF pH 1.6, 1 Hour, listed as Form 3): 7540 µg/mL (≈ 13800 µM) | Solubility ([2]; SGF pH 1.6, 4 Hours, listed as Form 3): 7900 µg/mL (≈ 14500 µM) | Solubility ([2]; SGF pH 1.6, 24 Hours, listed as Form 3): 8620 µg/mL (≈ 15800 µM) | Solubility ([2]; SGF pH 2.0, 1 Hour): 1490 µg/mL (≈ 2730 µM) | Solubility ([2]; SGF pH 2.0, 4 Hours, listed as Form 3): 1580 µg/mL (≈ 2890 µM) | Solubility ([2]; SGF pH 2.0, 24 Hours, listed as Form 3): 1700 µg/mL (≈ 3110 µM) | Solubility ([2]; SGF pH 4.0, 1 Hour, listed as Form 3): 160 µg/mL (≈ 293 µM) | Solubility ([2]; SGF pH 4.0, 4 Hours, listed as Form 3): 170 µg/mL (≈ 311 µM) | Solubility ([2]; SGF pH 4.0, 24 Hours, listed as Form 3): 190 µg/mL (≈ 348 µM) | solubility comparison in biorelevant media [3]: very similar | solubility at 1 h ([4]; Britton Robinson buffer, 37 °C, pH 3.7, aqueous buffer, thermodynamic from solid, nominal pH 3.7, BR buffer, 1-hr timepoint): 104 µg/mL (≈ 190 µM) | solubility at 4 h ([4]; Britton Robinson buffer, 37 °C, pH 3.7, aqueous buffer, thermodynamic from solid, nominal pH 3.7, BR buffer, 4-hr timepoint): 121 µg/mL (≈ 221 µM) | solubility at 24 h ([4]; Britton Robinson buffer, 37 °C, pH 3.7, aqueous buffer, thermodynamic from solid, nominal pH 3.7, BR buffer, 24-hr timepoint): 129 µg/mL (≈ 236 µM) | solubility classification ([4]; all pHs in the physiological range except close to the solubility minimum (between pH 3.2 and pH 4.2), high solubility = above 0.16 mg/mL (40 mg in 250 mL)): highly soluble | Solubility ([4]; nominal pH 1.2, SGF, 37° C., 1-hr timepoint): >1000 µg/mL | Solubility ([4]; nominal pH 1.2, SGF, 37° C., 4-hr timepoint): >1000 µg/mL | Solubility ([4]; nominal pH 1.2, SGF, 37° C., 24-hr timepoint): >1000 µg/mL | Solubility ([4]; nominal pH 3.0, BR buffer, 37° C., 1-hr timepoint): 166 µg/mL (≈ 304 µM) | Solubility ([4]; nominal pH 3.0, BR buffer, 37° C., 4-hr timepoint): 205 µg/mL (≈ 375 µM) | Solubility ([4]; nominal pH 3.0, BR buffer, 37° C., 24-hr timepoint): 238 µg/mL (≈ 435 µM) | Solubility ([4]; nominal pH 3.5, BR buffer, 37° C., 1-hr timepoint): 103 µg/mL (≈ 188 µM) | Solubility ([4]; nominal pH 3.5, BR buffer, 37° C., 4-hr timepoint): 122 µg/mL (≈ 223 µM) | Solubility ([4]; nominal pH 3.5, BR buffer, 37° C., 24-hr timepoint): 130 µg/mL (≈ 238 µM) | Solubility ([4]; nominal pH 4.0, BR buffer, 37° C., 1-hr timepoint): 119 µg/mL (≈ 218 µM) | Solubility ([4]; nominal pH 4.0, BR buffer, 37° C., 4-hr timepoint): 137 µg/mL (≈ 251 µM) | Solubility ([4]; nominal pH 4.0, BR buffer, 37° C., 24-hr timepoint): 147 µg/mL (≈ 269 µM) | Solubility ([4]; nominal pH 4.5, Acetate buffer, 37° C., 1-hr timepoint): 199 µg/mL (≈ 364 µM) | Solubility ([4]; nominal pH 4.5, Acetate buffer, 37° C., 4-hr timepoint): 252 µg/mL (≈ 461 µM) | Solubility ([4]; nominal pH 4.5, Acetate buffer, 37° C., 24-hr timepoint): 310 µg/mL (≈ 567 µM) | Solubility ([4]; nominal pH 5.0, BR buffer, 37° C., 1-hr timepoint): 342 µg/mL (≈ 626 µM) | Solubility ([4]; nominal pH 5.0, BR buffer, 37° C., 4-hr timepoint): 466 µg/mL (≈ 852 µM) | Solubility ([4]; nominal pH 5.0, BR buffer, 37° C., 24-hr timepoint): 620 µg/mL (≈ 1130 µM) | Solubility ([4]; nominal pH 6.8, Phosphate buffer, 37° C., 1-hr timepoint): >1000 µg/mL | Solubility ([4]; nominal pH 6.8, Phosphate buffer, 37° C., 4-hr timepoint): >1000 µg/mL | Solubility ([4]; nominal pH 6.8, Phosphate buffer, 37° C., 24-hr timepoint): >1000 µg/mL | difference in solubility between Form I and Form III ([4]; pH 1.2-6.8, 37±1° C.): no significant difference
SMILES: CCCC[C@]1(CC)CS(=O)(=O)c2cc(CNC(CC(=O)O)CC(=O)O)c(OC)cc2[C@@H](c2ccccc2)N1 [Form III]
change of form or drug-related impurity content [1]: Laboratory isolated Form III drug substance demonstrated no change in form | solubility comparison of the forms ([2]; all investigated physiologically relevant pH values (1.6 to 6.5)): Forms I and III have very similar solubilities at all investigated physiologically

time to full release [5]: 5 min | Solubility ([4]; buffer, 37 °C, pH 1.2, simulated gastric fluid, thermodynamic from solid, pH 1.2 (gastric pH), read-out: solubility): > 1000 µg/mL | Solubility ([4]; buffer, 37 °C, pH 6.8, aqueous buffer, thermodynamic from solid, pH 6.8 (intestinal pH), read-out: solubility): > 1000 µg/mL | systemic absorption [6]: minimal systemic absorption
SMILES: CCCC[C@]1(CC)CS(=O)(=O)c2cc(CNC(CC(=O)O)CC(=O)O)c(OC)cc2[C@@H](c2ccccc2)N1 [linerixibat, 3-({[(3R,5R)-3-butyl-3-ethyl-7-(methyloxy)-1,1-dioxido-5-phenyl-2,3,4,5-tetrahydro-1,4-benzothiazepin-8-yl]methyl}amino)pentanedioic acid]
